According to patent US12465604B2 (priority 2015, dated 2025):
Marks after values point to notes of the source that are not given here.

Key:
[1] = test system: NL4.3 virus in primary CD4+ T cells
Source text: Next we evaluated the multimodal effect of LEDGIN treatment on integration, assembly and reactivation in a multiple round reactivation model using WT HIV in resting CD4+ T-cells in order to model the in vivo situation. PHA/IL-2 activated primary (resting) CD4+ T cells were infected with NL4.3 virus in the presence of submicromolar concentrations of LEDGINs. At day four post infection (p.i.) LEDGINs were removed and cells were reseeded in the presence of PMA and PHA. Virus production upon reactivation was measured at day 7 p.i. by p24 ELISA.
Resting CD4+ T cells were purified using a custom-made EasySep negative selection kit (Stem Cell Technologies; 19052 cocktail, with the addition of CD25, CD69, and HLA-DR antibodies (catalogue number 19309VK)). […] Four days post-infection cells were washed twice using PBS and some cells were harvested for quantification of integrated proviral DNA using real time PCR (nested Alu-LTR PCR, (Butler et al., 2001; Lewin et al., 2008) normalized for input DNA by qPCR for the CCR5 gene as previously described (Zhang et al., 1999). Other cells were reseeded in the presence of 10 nM PMA (Sigma-Aldrich) together with 10 μg/mL PHA (Sigma-Aldrich) or left untreated. PHA activated feeder peripheral blood mononuclear cells (PBMCs) were added 24 h after the activating stimulus to amplify virus replication and enhance detection of the infection (Saleh et al., 2011). […]

[2] = test system: HIV-OGH double reporter virus in SupT1 cells; assay: Reactivation with TNFα, SupT1 cells infected with HIV-OGH double reporter virus; assay type: cell-based, HIV-1; settings: SupT1, 50 μM
Method: To corroborate these findings SupT1 cells were infected with the HIV-OGH double reporter virus under different LEDGIN (CX014442) concentrations. SupT1 cells were infected and reactivated under conditions similar to the experiment with HIV tCD34 (FIGS. 2 and 5). Data are represented in FIG. 6. Two different virus dilutions are depicted in panel A and B. In both graphs the percentage eGFP+, mKO2+ cells and overall % mKO2 positive cells is plotted after stimulation with DMSO or TNFα for 24 h. The dashed lines show an increase in percentage of eGFP+, mKO2+ cells after stimulation with TNFα compared to DMSO, while the overall percentage of mKO2 positive cells remains constant. LEDGIN treatment reduces the reactivation of eGFP+, mKO2+ cells in a concentration-dependent manner, with 50 μM of CX014442 reducing reactivation to only 1.5-2 fold (FIG. 6C).
11 days post infection the infected cells were reactivated from latency using TNFalpha (10 ng/mL, Immunosource), SAHA (0.3 to 3 μM, AIDS reagents), prostratin (5 μM, AIDS reagents) or PMA (0.3 μM, AIDS reagents) 24 hours prior to analysis by flow cytometry. Time courses and drug concentrations are indicated in the individual experiments. LEDGINs were synthesized by the Cistim/CD3-facility (courtesy of Dr. A. Marchand).

[3] = test system: HIV OGH double reporter virus in SupT1 cells; assay type: cell-based, HIV-1; settings: SupT1, 3 days post infection, increasing concentrations
[4] = test system: HIV-based vector integration sites in SupT1 cells; assay: Integration frequency near safe harbor criteria; assay type: cell-based
[5] = test system: HIV NL4-3.tCD34.R-.E- in SupT1 cells; assay: microbe, parasite or virus in culture; assay type: cell-based; settings: Human immunodeficiency virus 1, NL43, SUP-T1, read-out: inhibition of reactivation from latency
[6] = test system: HIV-based vector integration sites in SupT1 cells; assay: Integration site distribution of HIV-based vector near mapped genomic features; assay type: cell-based
[7] = test system: HIV-1; assay: 'late' IC50 stated in legend of FIG. 8; assay type: cell-based; settings: Human immunodeficiency virus 1
[8] = test system: OGH reporter virus in activated primary CD4+ T-cells; settings: 3 days post infection, trend
Source text: Peripheral Blood Mononuclear cells (PBMCs) were purified and CD4+ T-cells selectively enriched using Bi-specific MAb CD3.8 (AIDS reagents) for 5 days and infected with the OGH reporter virus. HIV infection was monitored 3 days post infection using flow cytometry analysis (FIG. 4).
Human PBMCs were purified, selectively enriched for CD4+ T cells using Bi-specific MAb CD3.8 and infected with the OGH reporter virus, in the presence or absence of LEDGINs (FIG. 7a,b).
Human peripheral blood mononuclear cells (PBMCs), obtained from the Red Cross Blood transfusion Center (Mechelen, Belgium) according to approved bioethical guidelines of our institute (S57175-IRB00002047), were purified from fresh buffy coats using lymphoprep density gradient centrifugation (Stem cell technologies). The CD4+ T cells were selectively enriched using Bi-specific MAb CD3.8 (0.5 μg/mL, AIDS reagents) for 5 days. Cells were cultured in RPMI 1640, 15% v/v FBS, 0.1% v/v Gentamicin, 100 U/ml IL-2 (Peprotech) (T-cell medium, TCM). Enriched total CD4+ primary T cells were infected with single round reporter virus for 2 h at 37° C., washed twice in TCM and reseeded in medium containing different concentrations of LEDGIN CX014442. HIV infection was monitored 48 h post infection using flow cytometry analysis.

[9] = test system: single-round HIV-based lentiviral vector in SupT1 cells; assay: Transduction efficiency of single-round HIV-based lentiviral vector (eGFP flow cytometry); assay type: cell-based; settings: dilution series, data not shown
Source text: In a next step we employed the recently developed LEDGINs, small molecules that inhibit LEDGF/p75-IN interaction and inhibit integration of HIV provirus (Christ et al., 2010, above) to investigate the impact of LEDGIN treatment on the HIV reservoir in cell culture. SupT1 cells were transduced with a single-round HIV-based lentiviral vector expressing the enhanced Green Fluorescent Protein (eGFP) reporter protein and treated with a dilution series of LEDGIN CX014442 (Christ et al 2012, above). […] In a first step, we determined integration site distribution of HIV-based viral vector integration sites (Gijsbers et al., 2009; Marshall et al., 2007). The number of integration sites is indicated for each data set (Table 2). First, we analysed lentiviral integration relative to a set of genomic features.

[10] = test system: NL4-3.tCD34.R-.E-/VSV-G latent provirus in Nalm wt (+/c) cells; assay type: cell-based, HIV
[11] = test system: NL4-3.tCD34.R-.E-/VSV-G latent provirus in Nalm LEDGF/p75 KO (−/−) cells; assay type: cell-based, HIV
[12] = compound concentration 0.78125 μM
[13] = compound concentration 1.5625 μM
[14] = compound concentration 3.125 μM

Structure (SMILES): CCCC(C(=O)O)c1c(C)nc2ccc(Cl)cc2c1-c1ccccc1 (centres unmarked) [CX014442, 2-(6-chloro-2-methyl-4-phenylquinolin-3-yl)pentanoic acid]
- number of proviral DNA copies ([1]; 4 days p.i., submicromolar concentrations): reduced
- p24 production upon reactivation with PMA and PHA ([1]; day 7 p.i., average of two donors): reduced
- reactivation of eGFP+, mKO2+ cells after TNFα relative to DMSO [2]: 1.5-2 fold
- % eGFP+, mKO2+ cells [3]: dose dependent decrease
- overall % mKO2 positive cells [3]: dose dependent decrease
- % in UCR [4, 12]: 6.36%
- % in transcript. Units [4, 12]: 74.95%
- % within 50 kb of TSS [4, 12]: 31.13%
- % within 300 kb of miRNAs [4, 12]: 25.54%
- % within 300 kb of onco [4, 12]: 38.15%
- Total % safe [4, 12]: 11.14%
- % in UCR [4, 13]: 7.24%
- % in transcript. Units [4, 13]: 75.11%
- % within 50 kb of TSS [4, 13]: 29.28%
- % within 300 kb of miRNAs [4, 13]: 22.52%
- % within 300 kb of onco [4, 13]: 35.47%
- Total % safe [4, 13]: 10.36%
- % in UCR [4, 14]: 7.77%
- % in transcript. Units [4, 14]: 71.91%
- % within 50 kb of TSS [4, 14]: 28.57%
- % within 300 kb of miRNAs [4, 14]: 23.34%
- % within 300 kb of onco [4, 14]: 35.45%
- Total % safe [4, 14]: 11.31%
- % in UCR ([4]; compound concentration 6.25 μM): 6.03%
- % in transcript. Units ([4]; compound concentration 6.25 μM): 70.48%
- % within 50 kb of TSS ([4]; compound concentration 6.25 μM): 29.46%
- % within 300 kb of miRNAs ([4]; compound concentration 6.25 μM): 21.76%
- % within 300 kb of onco ([4]; compound concentration 6.25 μM): 33.03%
- Total % safe ([4]; compound concentration 6.25 μM): 13.32%
- % in UCR ([4]; compound concentration 12.5 μM): 9.39%
- % in transcript. Units ([4]; compound concentration 12.5 μM): 67.42%
- % within 50 kb of TSS ([4]; compound concentration 12.5 μM): 31.33%
- % within 300 kb of miRNAs ([4]; compound concentration 12.5 μM): 24.89%
- % within 300 kb of onco ([4]; compound concentration 12.5 μM): 33.03%
- Total % safe ([4]; compound concentration 12.5 μM): 13.24%
- % in UCR ([4]; compound concentration 25 μM): 6.95%
- % in transcript. Units ([4]; compound concentration 25 μM): 66.06%
- % within 50 kb of TSS ([4]; compound concentration 25 μM): 29.80%
- % within 300 kb of miRNAs ([4]; compound concentration 25 μM): 21.52%
- % within 300 kb of onco ([4]; compound concentration 25 μM): 35.26%
- Total % safe ([4]; compound concentration 25 μM): 14.57%
- % in UCR ([4]; compound concentration 50 μM): 5.98%
- % in transcript. Units ([4]; compound concentration 50 μM): 59.57%
- % within 50 kb of TSS ([4]; compound concentration 50 μM): 32.54%
- % within 300 kb of miRNAs ([4]; compound concentration 50 μM): 22.25%
- % within 300 kb of onco ([4]; compound concentration 50 μM): 35.65%
- Total % safe ([4]; compound concentration 50 μM): 16.51%
- EC50 [5]: 7.24 µM
- % CpG within 2 kb ([6]; compound concentration 0.54 μM): 2.33%
- % CpG within 4 kb ([6]; compound concentration 0.54 μM): 5.83%
- % DHS within 2 kb ([6]; compound concentration 0.54 μM): 24.07%
- % DHS within 4 kb ([6]; compound concentration 0.54 μM): 39.94%
- % TSS within 2 kb ([6]; compound concentration 0.54 μM): 2.00%
- % TSS within 4 kb ([6]; compound concentration 0.54 μM): 5.92%
- in RefGene ([6]; compound concentration 0.54 μM): 70.58%
- % CpG within 2 kb ([6]; compound concentration 1.5 μM): 2.37%
- % CpG within 4 kb ([6]; compound concentration 1.5 μM): 5.79%
- % DHS within 2 kb ([6]; compound concentration 1.5 μM): 20.94%
- % DHS within 4 kb ([6]; compound concentration 1.5 μM): 37.18%
- % TSS within 2 kb ([6]; compound concentration 1.5 μM): 2.41%
- % TSS within 4 kb ([6]; compound concentration 1.5 μM): 5.88%
- in RefGene ([6]; compound concentration 1.5 μM): 70.37%
- % CpG within 2 kb ([6]; compound concentration 3 μM): 1.73%
- % CpG within 4 kb ([6]; compound concentration 3 μM): 5.39%
- % DHS within 2 kb ([6]; compound concentration 3 μM): 21.49%
- % DHS within 4 kb ([6]; compound concentration 3 μM): 37.55%
- % TSS within 2 kb ([6]; compound concentration 3 μM): 1.97%
- % TSS within 4 kb ([6]; compound concentration 3 μM): 5.59%
- in RefGene ([6]; compound concentration 3 μM): 66.60%
- % CpG within 2 kb ([6]; compound concentration 6 μM): 2.97%
- % CpG within 4 kb ([6]; compound concentration 6 μM): 6.39%
- % DHS within 2 kb ([6]; compound concentration 6 μM): 21.78%
- % DHS within 4 kb ([6]; compound concentration 6 μM): 37.12%
- % TSS within 2 kb ([6]; compound concentration 6 μM): 3.03%
- % TSS within 4 kb ([6]; compound concentration 6 μM): 6.45%
- in RefGene ([6]; compound concentration 6 μM): 65.23** %
- % CpG within 2 kb ([6]; compound concentration 12 μM): 3.39%
- % CpG within 4 kb ([6]; compound concentration 12 μM): 7.35%
- % DHS within 2 kb ([6]; compound concentration 12 μM): 23.6%
- % DHS within 4 kb ([6]; compound concentration 12 μM): 38.57%
- % TSS within 2 kb ([6]; compound concentration 12 μM): 3.96** %
- % TSS within 4 kb ([6]; compound concentration 12 μM): 7.58%
- in RefGene ([6]; compound concentration 12 μM): 61.88*** %
- % CpG within 2 kb ([6]; compound concentration 25 μM): 4.97** %
- % CpG within 4 kb ([6]; compound concentration 25 μM): 10.26** %
- % DHS within 2 kb ([6]; compound concentration 25 μM): 22.19%
- % DHS within 4 kb ([6]; compound concentration 25 μM): 40.07%
- % TSS within 2 kb ([6]; compound concentration 25 μM): 4.30** %
- % TSS within 4 kb ([6]; compound concentration 25 μM): 8.94%
- in RefGene ([6]; compound concentration 25 μM): 60.93*** %
- % CpG within 2 kb ([6]; compound concentration 50 μM): 5.50%
- % CpG within 4 kb ([6]; compound concentration 50 μM): 11.72*** %
- % DHS within 2 kb ([6]; compound concentration 50 μM): 26.08%
- % DHS within 4 kb ([6]; compound concentration 50 μM): 40.67%
- % TSS within 2 kb ([6]; compound concentration 50 μM): 6.94%
- % TSS within 4 kb ([6]; compound concentration 50 μM): 12.68*** %
- in RefGene ([6]; compound concentration 50 μM): 54.55%
- epigenetic preference of integration for transcriptionally active regions ([6]; histone marks, data not shown): inverted in a dose dependent manner
- concentration at which a significant difference compared to wt in global integration preferences was reached ([6]; shift out of transcriptionally active regions): above 12 μM
- IC50 [7]: 60 nM
- % latently infected cells [8]: increased
- % eGFP positive cells (transduction efficiency) [9]: dose-dependent decrease

Structure (SMILES): O=C(CCCCCCC(=O)Nc1ccccc1)NO [SAHA, Suberoylanilide Hydroxamic acid]
- reactivation of tCD34 expression [10]: 3- to 4 fold
- reactivation of tCD34 expression [11]: 2 fold
